From patent US10111854B2, “Synthesis and use of amine-containing flavonoids as potent anti-leishmanial agents” (The Hong Kong Polytechnic University, priority 2014, dated 2018)

What was measured:
[1] = tested on: L. amazonensis LV78 promastigotes; test: Anti-promastigote activity (MTS assay), L. amazonensis LV78; assay type: cell-based; settings: Leishmania amazonensis, 72 hours
Procedure: (§1) Promastigotes of visceral L. donovani Ld39 and LdHU3, and cutaneous L. amazonensis LV78, L. braziliensis UA847 and L. major FV1 were employed in the study. All strains were cultured in Schneider's Drosophila Medium (Invitrogen), pH 6.9 supplemented with 10% (v/v) heat inactivated fetal bovine serum (Hyclone) with 4 mM glutamine (Sigma) and 25 μg/mL gentamicin solution (Invitrogen) at 27° C. for 4 days. RAW264.7 cells were cultured in supplemented DMEM media with 10% heat inactivated FBS and 100 U/mL penicillin and 100 μg/mL of streptomycin. They were maintained at 37° C. in a humidified atmosphere with 5% CO2. The cells were split constantly after a confluent monolayer has been formed. The cells were harvested by a cell scraper.
(§2) Anti-promastigote activity was determined according to previous procedures (1) by Cell Titer 96® Aqueous Assay (Promega) that employed a tetrazolium compound. Promastigotes were seeded into 96-well flat bottom microtiter plate at 1×10^5 cells per well in a final volume of 100 μL medium and incubated with a series of concentrations of synthetic FM. Parasites were incubated at 27° C. for 72 hours. After 72 hours of incubation, 10 μL of MTS:PMS mixture [MTS:2-(4,5-Dimethylthiazol-2-yl-)-5-[3-(carboxymethoxy)phenyl]-2-(4-sulfophenyl)-2H-tetrazolium); PMS: phenazine methosulfate both purchased from Sigma] was added into each well of microtiter plate. The plate was then incubated at 27° C. for 4 hours for color development. After 4 hours of incubation, the OD values were determined at 490 nm using automatic microtiter plate reader (Bio-Rad).
(§3) IC50 values of known antileishmanials and the amine-containing flavonoid monomers of the present invention to promastigotes (L. amazonensis LV78, L major FV1, L. donovani HU3, L. donovani 39), macrophages (Raw 264.7 and PEM) and mouse fibroblast (L929) were determined. The anti-promastigotes activities and cytotoxicity of the amine-containing flavonoid monomers of the invention are shown in Table 1.

[2] = tested on: L. major FV1 promastigotes; test: Anti-promastigote activity (MTS assay), L. major FV1; assay type: cell-based; settings: Leishmania major, 72 hours
Procedure: as §1, §2, §3

[3] = tested on: L. donovani HU3 promastigotes; test: Anti-promastigote activity (MTS assay), L. donovani HU3; assay type: cell-based; settings: Leishmania donovani, 72 hours
Procedure: as §1, §2, §3

[4] = tested on: L. donovani Ld39 promastigotes; test: Anti-promastigote activity (MTS assay), L. donovani Ld39; assay type: cell-based; settings: Leishmania donovani, 72 hours
Procedure: as §1, §2, §3

[5] = Cytotoxicity, L929 fibroblasts; assay type: cell-based, mouse; settings: mouse
Procedure: as §3

[6] = tested on: L. amazonensis LV78 amastigotes; test: Anti-amastigote activity in infected PEM, L. amazonensis LV78; assay type: cell-based; settings: Leishmania amazonensis, 72 h; infected PEM, 3 days, Giemsa
Procedure: (§4) Mouse peritoneal elicited macrophages (PEM) were obtained as previously described (2). A round cover slip (12 mm in diameter) was placed into each well of 24-well culture plate. Mouse PEM were resuspended in supplemented DMEM media containing 10% heat inactivated FBS (v/v), 100 U/mL penicillin and 100 μg/mL streptomycin and seeded into each well at a cell density of 1×10^5 cells per 500 μL. Macrophages were allowed to attach overnight. Non-adherent cells were removed by gentle washing with un-supplemented DMEM media twice. Adherent macrophages were infected with late-log promastigotes at a parasite-to-macrophage ratio of 20:1 overnight at 37° C. with 5% CO2. Non-internalized promastigotes were removed by washing twice with un-supplemented DMEM media. Infected macrophages were further incubated in 500 μL of supplemented DMEM media in the presence or absence of FM for 72 hours at 37° C. After incubation, cover slips were stained with Giemsa and the percentage of macrophages infected and number of amastigotes per 100 macrophages was enumerated.
(§5) PEM cells were infected with late-log promastigotes (L. amazonensis LV78, L. braziliensis UA847, L. donovani HU3, L. donovani 39) for 24 hr at 37° C. Infected macrophages were then treated with various antileishmanials and incubated for 3 days at 37° C. After 3 days, the cover slips were stained with Giemsa. The number of amastigotes per 100 macrophages were determined and used to calculate IC50 values.

[7] = tested on: L. donovani Ld39 amastigotes (SSG-resistant); test: Anti-amastigote activity in infected PEM, L. donovani Ld39; assay type: cell-based; settings: for Selective index (a)/(c): IC50 RAW264.7 over IC50 L. donovani Ld39 amastigotes; for IC50: Leishmania donovani, 72 h, infected PEM, 3 days, Giemsa, SSG-resistant
Procedure: as §4, §5

[8] = Cytotoxicity, peritoneal elicited macrophages (PEM); assay type: cell-based, mouse; settings: mouse, Cytotoxicity IC50, PEM
Procedure: as §4, §3

[9] = tested on: L. donovani HU3 amastigotes; test: Anti-amastigote activity in infected PEM, L. donovani HU3; assay type: cell-based; settings: Leishmania donovani, 72 h; infected PEM, 3 days, Giemsa; SSG-sensitive
Procedure: as §4, §5

[10] = tested on: RAW264.7 cells; test: Reactive oxygen species (ROS) level, DCFDA, RAW264.7; assay type: cell-based, murine
Procedure: (§6) 50,000 RAW264.7 were seeded in each well of black 96-well plates overnight. Next day, RAW264.7 cells were pre-loaded with 10 μM dichlorofluorescein diacetate (DCFDA) (Abcam) for 1 hr at 37° C. with 5% CO2. A control of non-DCFDA stained cells was also included. The DCFDA-contained supplemented DMEM media was removed. The cells were re-suspended with 10 μM or 30 μM of respective tested compounds and positive control, tert-butyl hydroperoxide. In Leishmania, 1×10^7 promastigotes were also pre-loaded with 10 μM DCFDA at 27° C. for 1 hr. After removing the DCFDA-contained media, the promastigotes were seeded into black 96-well plate and incubated with 30 μM of respective compounds or positive control. The ROS level was determined at different periods of time including 2, 4, 6, 8, 20, 46 and 72 hr using microplate reader (excitation: 485 nm and emission: […]).
(§7) The ROS levels in both macrophage RAW264.7 and L. amazonensis promastigotes was measured by dichlorofluorescein diacetate (DCFDA) dye which is permeable to the cells. With oxidative stress, DCFDA would be oxidized to fluorescent DCF which is an indicator of intracellular ROS level. RAW cells or L. amazonensis promastigotes were pre-loaded with 10 μM of DCFDA for 1 hr, washed and exposed to 39, FM09, pentamidine and amphotericin B for different period of time (2, 4, 6, 8, 20, 46 and 72 hr). The fluorescence level was measured at the 520 nm using 485 nm as an excitation wavelength. 0.1% DMSO or 0.3% DMSO was used as a solvent control. The fluorescent value has been subtracted from non-DCFDA stained cells. The values were presented as mean±standard error of mean.

[11] = tested on: L. amazonensis LV78 promastigotes; test: Reactive oxygen species (ROS) level, DCFDA, promastigotes; assay type: cell-based; settings: 30 μM
Procedure: as §6, §7

| IC50 [1] [µM] | IC50 [2] [µM] | IC50 [3] [µM] | IC50 [6] [µM] | IC50 [9] [µM] | SMILES | IC50 [4] [µM] | IC50 [5] [µM] | IC50 [7] [µM] | IC50 [8] [µM] | further results |
| --- | --- | --- | --- | --- | --- | --- | --- | --- | --- | --- |
| 2.8 |  | 2.4 |  |  | O=c1cc(-c2ccc(OCCOCCNC(c3ccccn3)c3ccccn3)cc2)oc2ccccc12 [FM09p, 2-(4-(2-(2-((di(pyridin-2-yl)methyl)amino)ethoxy)ethoxy)phenyl)-4H-chromen-4-one] |  | 2.1 |  | 12.5 |  |
| 11.7 ± 1.34 |  | 15.4 ± 5.98 | 8.74 ± 0.77 | 10 | O=c1cc(-c2ccc(OCCN3CCN(Cc4ccccn4)CC3)cc2)oc2ccccc12 [FM01a, 2-(4-(2-(4-(pyridin-2-ylmethyl)piperazin-1-yl)ethoxy)phenyl)-4H-chromen-4-one] |  | 60.3 ± 2.3 |  |  |  |
| 28.1 ± 5.24 |  | 18.1 ± 4.88 | > 10 | > 10 | O=c1cc(-c2ccc(OCCOCCN(Cc3ncccc3Cl)Cc3ncccc3Cl)cc2)oc2ccccc12 [FM09g, 2-(4-(2-(2-(bis((3-chloropyridin-2-yl)methyl)amino)ethoxy)ethoxy)phenyl)-4H-chromen-4-one] |  | 33.7 ± 10.6 |  |  |  |

Further lines, the molecule ahead of its results:

| SMILES | IC50 [1] [µM] | IC50 [2] [µM] | IC50 [3] [µM] | IC50 [6] [µM] | IC50 [9] [µM] | IC50 [4] [µM] | IC50 [5] [µM] | IC50 [7] [µM] | IC50 [8] [µM] | further results |
| --- | --- | --- | --- | --- | --- | --- | --- | --- | --- | --- |
| O=C(COc1ccc(-c2cc(=O)c3ccccc3o2)cc1)N1CCN(C(=O)c2ccncc2)CC1 [FM16, 2-(4-(2-(4-isonicotinoylpiperazin-1-yl)-2-oxoethoxy)phenyl)-4H-chromen-4-one] | > 100 | > 100 | > 50 | > 10 |  | 87.1 ± 13 | > 100 | 5.7 |  | Selective index (a)/(c) [7]: >17.5; Selective index (a)/(c) ([7]; listed as 16): > 17.5 |
| O=c1cc(-c2ccc(OCCC3CCN(Cc4ccccn4)CC3)cc2)oc2ccccc12 [FM05a, 2-(4-(2-(1-(pyridin-2-ylmethyl)piperidin-4-yl)ethoxy)phenyl)-4H-chromen-4-one] | 2.97 ± 0.91 |  | 7.43 ± 2.15 | 3.57 ± 1.73 | 5.2 ± 1.68 |  | 58.9 ± 23.3 |  | 17.6 |  |
| O=C(COc1ccc(-c2cc(=O)c3ccccc3o2)cc1)N1CCCNCC1 [FM11, 2-(4-(2-(1,4-diazepan-1-yl)-2-oxoethoxy)phenyl)-4H-chromen-4-one] | > 100 | > 100 | 66.9 ± 9.7 | 7.1 ± 1.6 |  | > 100 | > 33 | > 10 |  |  |
| O=c1cc(-c2ccc(OCCOCCNCc3ccccn3)cc2)oc2ccccc12 [FM09m, 2-(4-(2-(2-((pyridin-2-ylmethyl)amino)ethoxy)ethoxy)phenyl)-4H-chromen-4-one] |  |  | 25.3 ± 3.94 | 4.46 ± 0.68 | 9.3 ± 0.56 |  | 23.9 ± 1.15 |  | 28.4 |  |
| CC(C)(C)OO [tert-butyl hydroperoxide] |  |  |  |  |  |  |  |  |  | RAW264.7 ROS Level, Relative fold (RF) ([10]; 10 μM, 2 hr): 2.3 fold; RAW264.7 ROS Level, Relative fold (RF) ([10]; 10 μM, 4 hr): 2.3 fold; RAW264.7 ROS Level, Relative fold (RF) ([10]; 10 μM, 6 hr): 2.2 fold; RAW264.7 ROS Level, Relative fold (RF) ([10]; 10 μM, 8 hr): 1.9 fold; RAW264.7 ROS Level, Relative fold (RF) ([10]; 10 μM, 20 hr): 1.8 fold; RAW264.7 ROS Level, Relative fold (RF) ([10]; 30 μM, 2 hr): 2.9 fold; RAW264.7 ROS Level, Relative fold (RF) ([10]; 30 μM, 4 hr): 2.9 fold; RAW264.7 ROS Level, Relative fold (RF) ([10]; 30 μM, 6 hr): 2.6 fold; RAW264.7 ROS Level, Relative fold (RF) ([10]; 30 μM, 20 hr): 1.9 fold; RAW264.7 ROS Level, Relative fold (RF) ([10]; 30 μM, 46 hr): 1.6 fold; L. amazon LV78 promastigote ROS Level, Relative fold (RF) ([11]; 2 hr): 1.4 fold; L. amazon LV78 promastigote ROS Level, Relative fold (RF) ([11]; 4 hr): 1.3 fold; L. amazon LV78 promastigote ROS Level, Relative fold (RF) ([11]; 6 hr): 1.4 fold; L. amazon LV78 promastigote ROS Level, Relative fold (RF) ([11]; 20 hr): 1.7 fold; L. amazon LV78 promastigote ROS Level, Relative fold (RF) ([11]; 46 hr): 1.5 fold; L. amazon LV78 promastigote ROS Level, Relative fold (RF) ([11]; 72 hr): 1.9 fold |
| O=C(COc1ccc(-c2cc(=O)c3ccccc3o2)cc1)N1CCNCC1 [FM10, 2-(4-(2-oxo-2-(piperazin-1-yl)ethoxy)phenyl)-4H-chromen-4-one] | 31.4 ± 2.4 | 78.5 ± 11.3 | 37.6 ± 2.8 | 6 ± 0.2 |  | 49.5 ± 8 | > 33 | > 10 |  |  |
| O=C(COc1ccc(-c2cc(=O)c3ccccc3o2)cc1)N1CCN(Cc2ccncc2)CC1 [FM12, 2-(4-(2-oxo-2-(4-(pyridin-4-ylmethyl)piperazin-1-yl)ethoxy)phenyl)-4H-chromen-4-one] | > 100 | > 100 | 25.4 ± 3.6 | > 10 |  | 15 ± 2.2 | > 100 | > 10 |  |  |
